Format in all cases: in vivo, rat
Data set [1] relates to Male Fisher 344 rats. Nature of the data set: Plasma MDA by GC/NICI-MS. As to conditions: for MDA (by GC-M5): plasma. As for the experimental part: (§1) Animals and treatment protocol: Male Fisher 344 rats (260-280 g) obtained from Charles River Laboratories (Raleigh, N.C.) were used in all experiments. The animals were housed three to a cage. Autoclaved hardwood bedding was used in solid-bottom polycarbonate cages with filter tops. Animal rooms were maintained at 20-25° C. with 35-70% relative humidity with alternating 12-hour light and dark cycles. The rats had free access to deionized, reverse-osmosis-treated water and received autoclaved NIH 31 rodent chow (Zeigler Bros., Gardners, Pa.) ad libitum. For all experiments, rats were fasted overnight and then administered intraperitoneal injections of carbon tetrachloride in canola oil. Control rats received an equal volume of canola oil. Fasting continued throughout the experiment. Rats were anesthetized with Nembutal (0.1 ml/100 g body weight) and 5 ml blood was removed from the dorsal aorta proximal to its bifurcation into the common iliac arteries.
(§2) Indomethacin pretreatment: The indomethacin regimen used has been previously shown to inhibit COX activity in rats by 90% (dose of 5 mg/kg s.c. 24 hours, 12 hours, and 2 hours prior to the injection of CCl4) (Jackson, 1989, J. Pharmacol. Exp. Ther. 250: 9-21). An additional booster dose was injected 8 hours after the last injection of CCl4 for the measurements performed 16 hours after treatment with CCl4.
(§3) Carbon tetrachloride (CCL4) treatment: Animals from each of the three dose groups (Control-canola oil, 120 mg/kg CCl4 i.p. and 1200 mg/kg CCl4 i.p.) were investigated at three time points (2, 7, and 16 hours after CCl4 injection). Indomethacin-pretreated rats were also investigated at the same three time points, and the meclofenamic acid-pretreated rats were investigated at one time point (7 hours). Each group consisted of five rats for each analysis, except the meclofenamic acid pretreatment group which consisted of six rats. Animal treatment, sample preparation, assessment of liver histology and serum enzyme activities are described elsewhere (Kadiiska et al., 2000, Free Radic. Biol. Med. 28: 838-845; Jackson, 1989, J. Pharmacol. Exp. Ther. 250: 9-21) and were carried out at NIEHS, Research Triangle Park, N.C.
(§4) Plasma sample preparation: Blood (5 ml) was drawn through single draw Vacutainer® needles (21 Gauge) into open Vacutainer® blood collection tubes containing heparin. The tubes were gently inverted 2-3 times for mixing and immediately placed on ice. Blood was centrifuged (2,000 rpm for 10 minutes at 4° C.) no more than 30 minutes after collection, and the plasma was collected, frozen on dry ice and stored at −70° C.
Plasma MDA concentrations were also measured by using gas chromatography/negative ion chemical ionization mass spectroscopy (GC/NICI-MS) as described by Yeo et al. (Yeo et al., 1994, Anal. Biochem. 220: 391-396). The stable isotope internal standard [^2H2] MDA and an antioxidant (2,6-tert-butyl-4-methylphenol) were added to the plasma samples. The samples were then incubated at room temperature in 6.6 mol H2SO4 for 10 minutes to hydrolyze the aldehydes from the proteins. Plasma MDA was converted to a stable pentafluorophenyl hydrazine derivative which was quantified by using the GC-MS in the negative chemical ionization mode. The assay was performed at Children's Hospital Oakland Research Institute, Oakland, Calif.

In data set [2] the test system is Male Fisher 344 rats. Nature of the data set: Plasma free 8-iso-PGF2α by GC/NICI-MS. As to conditions: for Free 8-iso-PGF2a (by GC-MS): plasma. As for the experimental part:
as §1, §2
Meclofenamic acid pretreatment: Meclofenamic acid was injected at a dose of 5 mg/kg i.p. 12 h and 2 h prior to the injection of CCl4.
as §3, §4
Two slightly different methods developed in two different laboratories were used to measure the effect of CCl4 on the plasma levels of free 8-iso-PGF2α, and the sum of free plus esterified 8-iso-PGF2α (also known as 8-epi-PGF2α and iPF2α-III and 15-F2t-IsoP). Free 8-iso-PGF2α concentrations in plasma were determined by gas chromatography/negative ion chemical ionization mass spectrometry (GC/NICI-MS) by the method of Morrow et al. (1999, Methods Enzymol. 300: 3-12). Briefly, [2H4] 8-iso-PGF2α internal standard was added to plasma and F2-isoprostanes were extracted with a C18 Sep-Pak® Cartridge (Waters Associates, Milford, Mass.). The extracted F2-isoprostanes were converted to pentafluorobenzyl ester and purified by TLC after which they were converted to a trimethylsilyl ether derivative and subsequently analyzed by GC-MS. The assay was developed and performed at Vanderbilt University, Nashville, Tenn.

The subject of data set [3] is Male Fisher 344 rats. The data set can be described thus: Plasma MDA, Bioxytech LPO-586 colorimetric assay. As to conditions: both CCl4 doses. On the procedure: as §1, with “arteries. […]” for “arteries.”
Two colorimetric-based assays, using third derivative spectroscopy, were also used to measure MDA in plasma. […] One molecule of free MDA combines with 2 molecules of the chromogenic agent to produce a stable chromophore with a maximal absorbance at 586 nm. In both assays, the concentration of MDA was determined with 3rd derivative spectroscopy. […]

Data set [4] has as its system Male Fisher 344 rats. The data set can be described thus: Comet assay of blood leucocyte DNA. The settings on record: CCl4 120 and 1200 mg/kg; 2, 7, 16 h. As for the experimental part:
as §1
Carbon tetrachloride (CCL4) treatment: Animals from each of the three dose groups (Control-canola oil, 120 mg/kg CCl4 i.p. and 1200 mg/kg CCl4 i.p.) were investigated at three time points (2, 7, and 16 hours after CCl4 injection). Indomethacin-pretreated rats were also investigated at the same three time points, and the meclofenamic acid-pretreated rats were investigated at one time point (7 hours). […]

Consider `ClC(Cl)(Cl)Cl` [CCl4, Carbon tetrachloride], for which the “increase of plasma MDA (GC/NICI-MS)” value with Male Fisher 344 rats [1] (7 hours after CCl4) was found to be 3 fold. Also, the “MDA (by GC-M5)” value with Male Fisher 344 rats [1] (CCl4 120 mg/kg i.p., 2 h) was 0.41 µM; with Male Fisher 344 rats [1] (CCl4 120 mg/kg i.p., 7 h), 0.35 µM; in the data set on Male Fisher 344 rats [1] (CCl4 120 mg/kg i.p., 16 h), 0.22 µM; with Male Fisher 344 rats [1] (CCl4 1200 mg/kg i.p., 2 h), 1.35 µM; with Male Fisher 344 rats [1] (CCl4 1200 mg/kg i.p., 7 h) it was 0.36 µM; with Male Fisher 344 rats [1] (CCl4 1200 mg/kg i.p., 16 h) it was 0.23 µM. In addition, the “increase of plasma MDA compared to controls (GC/NICI-MS)” value in the data set on Male Fisher 344 rats [1] (higher dose of CCl4, 2 hours) is given as 12 fold. Also, the “Free 8-iso-PGF2a (by GC-MS)” value came to 0.48 ng/mL in the data set with Male Fisher 344 rats [2] (CCl4 120 mg/kg i.p., 2 h); 0.34 ng/mL in the data set with Male Fisher 344 rats [2] (CCl4 120 mg/kg i.p., 7 h); 0.27 ng/mL in the data set with Male Fisher 344 rats [2] (CCl4 120 mg/kg i.p., 16 h); 1.80 ng/mL in the data set with Male Fisher 344 rats [2] (CCl4 1200 mg/kg i.p., 2 h); 1.27 ng/mL with Male Fisher 344 rats [2] (CCl4 1200 mg/kg i.p., 7 h); 0.74 ng/mL in the data set with Male Fisher 344 rats [2] (CCl4 1200 mg/kg i.p., 16 h). Moreover, the “increase of free plasma 8-iso-PGF2α” value in the data set on Male Fisher 344 rats [2] (high dose CCl4, 2 hours) is recorded as 18 fold; in the data set on Male Fisher 344 rats [2] (high dose CCl4, 7 hours), 10 fold; in the data set on Male Fisher 344 rats [2] (high dose CCl4, 16 hours), 7 fold. The “plasma MDA with LPO-586 reagents, 3rd derivative analysis” value in the data set on Male Fisher 344 rats [3] was “significant increase was found only for the early time points”. In addition, the “Comet assay: % migrated DNA, tail length, tail moment” value with Male Fisher 344 rats [4] is given as “statistically significant increase only at the low dose of CCl4 at 16 hours”.

The values are drawn from US7833795B2, “Assessment of cardiovascular risk using isoprostane biomarkers and COX-2 selective inhibitors” (The Trustees of the University of Pennsylvania, priority 2004, dated 2010).
